According to US20260209196A1, “AMIDINOUREA DERIVATIVES AND THEIR USE IN THE TREATMENT OF CANCER” (UNIVERSITE COTE D'AZUR, priority 2022, published 2026):
Like-named read-outs stand apart in the source and are kept apart here.

Tests used:
Type in all cases: cell-based
A375 = experiment: Cell viability of A375 melanoma cells by Trypan Blue exclusion; details: for viability at 5 µM: Homo sapiens, A-375, viable cells as mean percentage of control cells ± SEM, N=3
Method: The BRAFV600E mutant melanoma line A375 (CRL-1619) was purchased from ATCC (Manassas, VA, USA). The A375 were maintained in glutamine-containing DMEM supplemented with 10% heat-inactivated fetal bovine serum, penicillin (100 units/ml) and streptomycin ([…]).
(§1) Cell viability was measured by the Trypan Blue exclusion method. Briefly, cells washed with PBS were harvested by a 3-minute incubation in 0.05% trypsin before neutralization with serum containing medium. An aliquot of the cell suspension was then mixed 1:1 with a 0.4% Trypan blue solution and viable cells were counted within 5 minutes on Kova slides under an optical microscope. Results are expressed as the mean percentage of control cells±SEM. N=3

NCI 60 cell panel = experiment: DTP-NCI assay (NCI 60 cell screen, single high dose); details: Homo sapiens, 48 h; single high dose 10^-5 M, full NCI 60 cell panel; growth relative to no-drug control and to time zero number of cells; read-out: DTP-NCI (mean of the percent growth of treated cells)
Method: The effect of 10 μM of MTF504 was monitored on a panel 60 cell lines representing nine distinct tumour types: leukemia, colon, lung, central nervous system, renal, melanoma, ovarian, breast and prostate. Briefly, the compound was sent to the US National Cancer Institute where its antineoplastic effects were monitored on the panel of cell lines after 48 hours of treatment following a standardized protocol.
All compounds submitted to the NCI 60 Cell screen are tested initially at a single high dose (10^-5 M) in the full NCI 60 cell panel. The results are reported as a mean of the percent growth of treated cells. The number reported is growth relative to the no-drug control, and relative to the time zero number of cells. This allows detection of […].

normal human melanocytes = experiment: Toxicity on normal human melanocytes by Trypan blue counting; details: FIG. 3
Method: Normal human melanocytes were obtained from the foreskins of Caucasian children and grown in MCDB 153 medium supplemented with 2% fetal calf serum, 0.5 mg/ml hydrocortisone, 5 mg/ml insulin, 16 nM phorbol-12 myristate 13-acetate, 1 ng/ml basic fibroblast growth factor, 20 mg/ml bovine pituitary extract, […], and penicillin/streptomycin (100 U/ml/[…]). All cells were maintained in humidified incubators at 37° C. with 5% CO2.
as §1

[1] = 24 h, read-out: Viab A375 5 μM/24 h
[2] = 48 h, read-out: Viab A375 5 μM/48 h

SMILES | viability at 5 µM (A375; [1]) | viability at 5 µM (A375; [2]) | decrease of melanoma cell viability versus CRO15 and MTF319 (A375; after 24 hours of treatment, FIG. 5) | activity at 10 µM (NCI 60 cell panel) | toxicity on normal human melanocytes (normal human melanocytes)
N=C(NC(=O)Nc1ccccc1Cl)Nc1nc2ccccc2s1 [MTF504, N-benzo[d]thiazol-2-yl-N″-(2-chloroaniline-carbonyl)-guanidine] | 26% | 7.1% | more efficient than previously reported compounds | 25.4% | absence of toxicity
N=C(NC(=O)Nc1ccc(Br)cc1)Nc1nc(-c2cccc([N+](=O)[O-])c2)cs1 [MTF427, N-4-(3-nitrophenyl) thiazol-2-yl-N″-(4-bromoaniline-carbonyl)-guanidine] | 94.2% | 34.4% | – | 72.5% | –
